Data as given in patent US6525001B1, “Substituted pyrimidine and pyridine herbicides” (Mid-American Commercialization Corporation, priority 1997, dated 2003).

Legend:
Format in all cases: in vivo
Design in all cases: key: 0 is no effect; 10 is complete control
rape (Brassica napus) = experiment: Test B pre-/postemergence
Outline: (§1)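 Scored visually 0 (none) to 10 (complete control) against untreated plants after twelve to sixteen greenhouse days. Test chemicals, formulated in surfactant-containing non-phytotoxic solvent, applied to soil after planting and, separately, onto 1- to 4-leaf (2–18 cm) plants.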

corn (Zea mays) = experiment: Test B pre-/postemergence
Outline: as §1

[1] = tested on: bedstraw (Galium aparine); experiment: Test B pre-/postemergence
Outline: as §1

soybean (Glycine max) = experiment: Test B pre-/postemergence
Outline: as §1

[2] = tested on: purple nutsedge (Cyperus rotundus); experiment: Test B pre-/postemergence
Outline: as §1

[3] = tested on: velvetleaf (Abutilon theophrasti); experiment: Test B pre-/postemergence
Outline: as §1

[4] = tested on: momingglory (Ipomoea hederacea); experiment: Test B pre-/postemergence
Outline: as §1

[5] = tested on: broadleaf signalgrass (Brachiaria decumbens); experiment: Test B pre-/postemergence
Outline: as §1

[6] = tested on: crabgrass (Digitaria sanguinalis); experiment: Test B pre-/postemergence
Outline: as §1

[7] = tested on: blackgrass (Alopecurus myosuroides); experiment: Test B pre-/postemergence
Outline: as §1

[8] = tested on: cocklebur (Xanthium strumarium); experiment: Test B pre-/postemergence
Outline: as §1

[9] = tested on: wheat (Triticum aestivum); experiment: Test B pre-/postemergence
Outline: as §1

[10] = tested on: sugar beet (Beta vulgaris); experiment: Test B pre-/postemergence
Outline: as §1

[11] = tested on: pigweed (Amaranthus retroflexus); experiment: Test B pre-/postemergence
Outline: as §1

wild oat (Avena fatua) = experiment: Test B pre-/postemergence
Outline: as §1

[12] = tested on: giant foxtail (Setaria faberii); experiment: Test B pre-/postemergence
Outline: as §1

[13] = tested on: duck salad (Heteranthera limosa); experiment: Test B flood test
Outline: (§2)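 Flood test on plants grown to the 2-leaf stage; treated plants kept in greenhouse twelve to sixteen days, then visually rated against controls on a 0 (no effect) to 10 (complete control) scale.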

[14] = tested on: bamyardgrass (Echinochloa crus-galli); experiment: Test B flood test
Outline: as §2

[15] = tested on: smallflower flatsedge (Cyperus difformis); experiment: Test B flood test
Outline: as §2

rice (Oryza sativa) = experiment: Test B flood test
Outline: as §2

[16] = Rate 62 g/ha, Postemergence (flood test)
[17] = Rate 125 g/ha, Postemergence, flood test
[18] = Rate 250 g/ha, Postemergence (flood test species)

For `Cc1cnc(-c2ccc(C(F)(F)F)cc2)nc1C(C)c1cccc(C(F)(F)F)c1` (racemic) [Compound 19], the “Plant response rating, Rape” value (rape (Brassica napus); Rate 62 g/ha, Postemergence) was 2, the “Rape plant response rating” value (rape (Brassica napus); Rate 62 g/ha, Preemergence) was 0 and the “Plant response rating, Rape” value (rape (Brassica napus); Rate 125 g/ha, Postemergence) was 2. For the same compound, the “Rape plant response rating” value (rape (Brassica napus); Rate 125 g/ha, Preemergence) was 0, the “Plant response rating, Rape” value (rape (Brassica napus); Rate 250 g/ha, Postemergence) was 3 and the “Plant response rating, Rape” value (rape (Brassica napus); Rate 250 g/ha, Preemergence) was 0. The “Plant response rating, Corn” value (corn (Zea mays); Rate 62 g/ha, Postemergence) was 1, the “Corn plant response rating” value (corn (Zea mays); Rate 62 g/ha, Preemergence) was 0 and the “Plant response rating, Corn” value (corn (Zea mays); Rate 125 g/ha, Postemergence) was 2. The “Corn plant response rating” value (corn (Zea mays); Rate 125 g/ha, Preemergence) was 0, the “Plant response rating, Corn” value (corn (Zea mays); Rate 250 g/ha, Postemergence) was 3 and the “Plant response rating, Corn” value (corn (Zea mays); Rate 250 g/ha, Preemergence) was 0. The “Plant response rating, Bedstraw” value ([1]; Rate 62 g/ha, Postemergence) was 2, the “Bedstraw plant response rating” value ([1]; Rate 62 g/ha, Preemergence) was 0 and the “Plant response rating, Bedstraw” value ([1]; Rate 125 g/ha, Postemergence) was 3. For the same compound, the “Bedstraw plant response rating” value ([1]; Rate 125 g/ha, Preemergence) was 0, the “Plant response rating, Bedstraw” value ([1]; Rate 250 g/ha, Postemergence) was 3 and the “Plant response rating, Bedstraw” value ([1]; Rate 250 g/ha, Preemergence) was 0. For the same compound, the “Plant response rating, Soybean” value (soybean (Glycine max); Rate 62 g/ha, Postemergence) was 2, the “Soybean plant response rating” value (soybean (Glycine max); Rate 62 g/ha, Preemergence) was 0 and the “Plant response rating, Soybean” value (soybean (Glycine max); Rate 125 g/ha, Postemergence) was 3. For the same compound, the “Soybean plant response rating” value (soybean (Glycine max); Rate 125 g/ha, Preemergence) was 0, the “Plant response rating, Soybean” value (soybean (Glycine max); Rate 250 g/ha, Postemergence) was 4 and the “Plant response rating, Soybean” value (soybean (Glycine max); Rate 250 g/ha, Preemergence) was 0. For the same compound, the “Plant response rating, Nutsedge” value ([2]; Rate 62 g/ha, Postemergence) was 0, the “Nutsedge plant response rating” value ([2]; Rate 62 g/ha, Preemergence) was 0 and the “Plant response rating, Nutsedge” value ([2]; Rate 125 g/ha, Postemergence) was 0. The “Nutsedge plant response rating” value ([2]; Rate 125 g/ha, Preemergence) was 0, the “Plant response rating, Nutsedge” value ([2]; Rate 250 g/ha, Postemergence) was 0 and the “Plant response rating, Nutsedge” value ([2]; Rate 250 g/ha, Preemergence) was 0. The “Plant response rating, Velvetleaf” value ([3]; Rate 62 g/ha, Postemergence) was 1, the “Velvetleaf plant response rating” value ([3]; Rate 62 g/ha, Preemergence) was 0 and the “Plant response rating, Velvetleaf” value ([3]; Rate 125 g/ha, Postemergence) was 2. The “Velvetleaf plant response rating” value ([3]; Rate 125 g/ha, Preemergence) was 0, the “Plant response rating, Velvetleaf” value ([3]; Rate 250 g/ha, Postemergence) was 2 and the “Plant response rating, Velvetleaf” value ([3]; Rate 250 g/ha, Preemergence) was 0. The “Plant response rating, Morningglory” value ([4]; Rate 62 g/ha, Postemergence) was 3, the “Morningglory plant response rating” value ([4]; Rate 62 g/ha, Preemergence) was 0 and the “Plant response rating, Morningglory” value ([4]; Rate 125 g/ha, Postemergence) was 3. The “Morningglory plant response rating” value ([4]; Rate 125 g/ha, Preemergence) was 0, the “Plant response rating, Morningglory” value ([4]; Rate 250 g/ha, Postemergence) was 6 and the “Plant response rating, Morningglory” value ([4]; Rate 250 g/ha, Preemergence) was 0. The “Plant response rating, B. signalgrass” value ([5]; Rate 62 g/ha, Postemergence) was 1, the “B. signalgrass plant response rating” value ([5]; Rate 62 g/ha, Preemergence) was 0 and the “Plant response rating, B. signalgrass” value ([5]; Rate 125 g/ha, Postemergence) was 2. The “B. signalgrass plant response rating” value ([5]; Rate 125 g/ha, Preemergence) was 0, the “Plant response rating, B. signalgrass” value ([5]; Rate 250 g/ha, Postemergence) was 2 and the “Plant response rating, B. signalgrass” value ([5]; Rate 250 g/ha, Preemergence) was 0. For the same compound, the “Plant response rating, Crabgrass” value ([6]; Rate 62 g/ha, Postemergence) was 1, the “Crabgrass plant response rating” value ([6]; Rate 62 g/ha, Preemergence) was 0 and the “Plant response rating, Crabgrass” value ([6]; Rate 125 g/ha, Postemergence) was 2. The “Crabgrass plant response rating” value ([6]; Rate 125 g/ha, Preemergence) was 0, the “Plant response rating, Crabgrass” value ([6]; Rate 250 g/ha, Postemergence) was 2 and the “Plant response rating, Crabgrass” value ([6]; Rate 250 g/ha, Preemergence) was 0. The “Plant response rating, Blackgrass” value ([7]; Rate 62 g/ha, Postemergence) was 1, the “Blackgrass plant response rating” value ([7]; Rate 62 g/ha, Preemergence) was 0 and the “Plant response rating, Blackgrass” value ([7]; Rate 125 g/ha, Postemergence) was 1. For the same compound, the “Blackgrass plant response rating” value ([7]; Rate 125 g/ha, Preemergence) was 0, the “Plant response rating, Blackgrass” value ([7]; Rate 250 g/ha, Postemergence) was 1 and the “Plant response rating, Blackgrass” value ([7]; Rate 250 g/ha, Preemergence) was 0. The “Plant response rating, Cocklebur” value ([8]; Rate 62 g/ha, Postemergence) was 2, the “Cocklebur plant response rating” value ([8]; Rate 62 g/ha, Preemergence) was 0 and the “Plant response rating, Cocklebur” value ([8]; Rate 125 g/ha, Postemergence) was 3. For the same compound, the “Plant response rating, Cocklebur” value ([8]; Rate 250 g/ha, Postemergence) was 3, the “Plant response rating, Cocklebur” value ([8]; Rate 250 g/ha, Preemergence) was 0 and the “Plant response rating, Wheat” value ([9]; Rate 62 g/ha, Postemergence) was 0. The “Wheat plant response rating” value ([9]; Rate 62 g/ha, Preemergence) was 0, the “Plant response rating, Wheat” value ([9]; Rate 125 g/ha, Postemergence) was 0 and the “Wheat plant response rating” value ([9]; Rate 125 g/ha, Preemergence) was 0. The “Plant response rating, Wheat” value ([9]; Rate 250 g/ha, Postemergence) was 0, the “Plant response rating, Wheat” value ([9]; Rate 250 g/ha, Preemergence) was 0 and the “Plant response rating, Sugarbeets” value ([10]; Rate 62 g/ha, Postemergence) was 2. The “Sugarbeets plant response rating” value ([10]; Rate 62 g/ha, Preemergence) was 0, the “Plant response rating, Sugarbeets” value ([10]; Rate 125 g/ha, Postemergence) was 4 and the “Sugarbeets plant response rating” value ([10]; Rate 125 g/ha, Preemergence) was 0. For the same compound, the “Plant response rating, Sugarbeets” value ([10]; Rate 250 g/ha, Postemergence) was 6, the “Plant response rating, Sugarbeets” value ([10]; Rate 250 g/ha, Preemergence) was 0 and the “Plant response rating, Redroot pigweed” value ([11]; Rate 62 g/ha, Postemergence) was 2. The “Redroot pigweed plant response rating” value ([11]; Rate 62 g/ha, Preemergence) was 0, the “Plant response rating, Redroot pigweed” value ([11]; Rate 125 g/ha, Postemergence) was 5 and the “Redroot pigweed plant response rating” value ([11]; Rate 125 g/ha, Preemergence) was 0. For the same compound, the “Plant response rating, Redroot pigweed” value ([11]; Rate 250 g/ha, Postemergence) was 7, the “Plant response rating, Redroot pigweed” value ([11]; Rate 250 g/ha, Preemergence) was 0 and the “Plant response rating, Wild oats” value (wild oat (Avena fatua); Rate 62 g/ha, Postemergence) was 0. The “Wild oats plant response rating” value (wild oat (Avena fatua); Rate 62 g/ha, Preemergence) was 0, the “Plant response rating, Wild oats” value (wild oat (Avena fatua); Rate 125 g/ha, Postemergence) was 1 and the “Wild oats plant response rating” value (wild oat (Avena fatua); Rate 125 g/ha, Preemergence) was 0. For the same compound, the “Plant response rating, Wild oats” value (wild oat (Avena fatua); Rate 250 g/ha, Postemergence) was 2, the “Plant response rating, Wild oats” value (wild oat (Avena fatua); Rate 250 g/ha, Preemergence) was 0 and the “Plant response rating, Giant foxtail” value ([12]; Rate 62 g/ha, Postemergence) was 0. For the same compound, the “Giant foxtail plant response rating” value ([12]; Rate 62 g/ha, Preemergence) was 0, the “Plant response rating, Giant foxtail” value ([12]; Rate 125 g/ha, Postemergence) was 0 and the “Giant foxtail plant response rating” value ([12]; Rate 125 g/ha, Preemergence) was 0. The “Plant response rating, Giant foxtail” value ([12]; Rate 250 g/ha, Postemergence) was 1, the “Plant response rating, Giant foxtail” value ([12]; Rate 250 g/ha, Preemergence) was 0 and the “Plant response rating, Ducksalad” value [13, 16] was 0. For the same compound, the “Plant response rating, Ducksalad” value [13, 17] was 2, the “Plant response rating, Ducksalad” value [13, 18] was 7 and the “Plant response rating, Barnyardgrass” value [14, 16] was 0. The “Plant response rating, Barnyardgrass” value [14, 17] was 2, the “Plant response rating, Barnyardgrass” value [14, 18] was 3 and the “Plant response rating, S. Flatsedge” value [15, 16] was 0. The “Plant response rating, S. Flatsedge” value [15, 17] was 2, the “Plant response rating, S. Flatsedge” value [15, 18] was 6 and the “Plant response rating, Rice” value (rice (Oryza sativa); [16]) was 0. For the same compound, the “Plant response rating, Rice” value (rice (Oryza sativa); [17]) was 0 and the “Plant response rating, Rice” value (rice (Oryza sativa); [18]) was 2.
